Measured values from patent US20240327401A1, “FUSED RING COMPOUND, PHARMACEUTICAL COMPOSITION, AND APPLICATION THEREOF” (EVOPOINT BIOSCIENCES CO., LTD., priority 2021, published 2024).

Tests used:
[1] = target: T1, SOS1/KRAS G12C protein binding (Homo sapiens, UniProt Q07889); experiment: Inhibition of SOS1/KRAS G12C protein binding (665 nm/615 nm ratio); settings: 15 nM KRAS G12C (aa 1-169), 2.5 nM His-SOS1 (aa 564-1049); nonlinear regression
T1 construct: His-SOS1 (aa 564-1049) protein; purchased Pharmaron Beijing Co., Ltd. 20200717 (His-SOS1); 20200707 (KRAS G12C)
T1 sequence (Q07889 564-1049): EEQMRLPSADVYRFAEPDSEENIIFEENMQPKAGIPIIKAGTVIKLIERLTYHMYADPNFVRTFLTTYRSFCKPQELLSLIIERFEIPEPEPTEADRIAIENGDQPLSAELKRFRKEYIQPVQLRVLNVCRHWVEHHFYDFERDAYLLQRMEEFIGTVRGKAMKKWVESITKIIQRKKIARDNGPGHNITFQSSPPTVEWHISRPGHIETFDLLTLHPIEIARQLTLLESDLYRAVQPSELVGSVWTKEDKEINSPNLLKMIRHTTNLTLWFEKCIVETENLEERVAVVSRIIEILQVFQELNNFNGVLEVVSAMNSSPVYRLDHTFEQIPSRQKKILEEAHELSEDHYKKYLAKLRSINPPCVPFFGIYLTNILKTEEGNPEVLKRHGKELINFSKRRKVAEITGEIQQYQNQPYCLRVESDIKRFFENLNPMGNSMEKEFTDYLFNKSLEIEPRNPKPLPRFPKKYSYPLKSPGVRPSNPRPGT
Method: Efficacy Example 2: Evaluation of Inhibition of SOS1/KRAS G12C Protein Binding
A test compound was dissolved in 100% DMSO to give a solution at a concentration of 10 mM. 10 μL of the solution was taken and 3-fold diluted with 100% DMSO to prepare test compound solutions with concentrations of 10000 nM to […], for a total of 11 concentrations. The compound solutions at different concentrations were then transferred to a 384-well plate at 0.1 μL/well using a sonic droplet device Echo (Labcyte), and 2 replicate wells were set for each concentration.
A 15 nM KRAS G12C (aa 1-169) protein (Pharmaron Beijing Co., Ltd., 20200707) was transferred to the 384-well reaction plate at 5 μL/well using the sonic droplet device Echo (Labcyte), and then the reaction plate was centrifuged in a centrifuge (Eppendorf, 5810R) at 1000 rpm/min for 1 min.
A 2.5 nM His-SOS1 (aa 564-1049) protein (Pharmaron Beijing Co., Ltd., 20200717) was transferred to the 384-well reaction plate at 5 μL/well using the sonic droplet device Echo (Labcyte), and then the reaction plate was centrifuged in a centrifuge (Eppendorf, 5810R) at 1000 rpm/min for 1 min and incubated at 25° C. for 15 min.
A mixed solution of Antibody 1 (MAb Anti-6his-Tb cryptate Gold, Cisbio, 61HI2TLA) and Antibody 2 (MAb Anti-GST-XL665, Cisbio, 61GSTXLA) was transferred to the 384-well reaction plate at 10 μL/well using the sonic droplet device Echo (Labcyte), and then the reaction plate was centrifuged in a centrifuge (Eppendorf, 5810R) at 1000 rpm/min for 1 min and incubated at 25° C. for 120 min.
The 665 nm/615 nm optical density ratio was read using an Envision multifunctional microplate reader (Perkin Elmer, Envision 2104).
Analysis of Original Data:
The IC50 values of the compounds were fitted by a nonlinear regression equation of Graphpad Prism 8. The results are shown in Table 2: • Negative control: DMSO
The IC50 (half maximal inhibitory concentration) values of the compounds were calculated using the following non-linear fitting equation:
[formula] • X: Log of cpd concentration • Y: 665 nm/615 nm ratio

[2] = test system: ERK phosphorylation in DLD-1 cells; experiment: In-cell Western blot assay for ERK phosphorylation in DLD-1 cells; format: cell-based; settings: Homo sapiens, p-ERK signal corrected using DMSO and BI-3406, four-parameter fit
Method: Efficacy Example 1: In-cell Western Blot Assay for ERK Phosphorylation in DLD-1 Cells
DLD-1 cells (ATCC, CCL-221) were thawed and cultured in a culture medium containing RPMI1640 (Gibco, A10491-01), 10% fetal bovine serum (FBS) (Transgene, FS201-02) and 1% antibiotic P/S (Gibco, 15140-122) for 3 days until the cell viability was good. The cells were inoculated into a 384-well plate and incubated at 37° C. with 5% CO2 overnight. A test compound, a positive control compound, and a negative control were added. The compound was at concentrations of 10000 nM to 1.52 nM (3-fold dilution) and […], for a total of 10 concentrations. The mixture was well mixed and incubated at 37° C. with 5% CO2. The cells were washed twice with PBS (Solarbio, P1010), and then a blocking buffer was added. After 1 h of blocking at room temperature, a primary antibody mixture (phospho-p44/42 MAPK (T202/Y204) Rabbit mAb (CST, […]), GAPDH (D4C6R) Mouse mAb) (CST, 97166S) was added, followed by overnight incubation at 4° C. The cells were washed 3 times with PBST (PBS containing 0.05% Tween-20 (Solarbio, T8220)), and a secondary antibody mixture (goat anti rabbit 800CW (LI-COR, 926-32211), goat anti mouse 680RD (LI-COR, 926-68070)) was added, followed by incubation at room temperature in the dark. The 384-well plate was reversed and centrifuged at 1000 rpm for 1 min, and read on an Odyssey CLx fluorescence imaging system (LI-COR) to obtain fluorescence signal values, which were corrected using DMSO and BI-3406.
[formula] • H=Ave (DMSO) • L=Ave (BI-3406) • SD (H)=STDEV (DMSO) • SD (L)=STDEV (BI-3406)
The IC50 values of the compounds were calculated using a four-parameter fitting algorithm, specifically as follows:
[formula] • X: Log of cpd concentration • Y: Ave (relative pERK) • Top and Bottom: Plateaus in same units as Y • log IC50: same log units as X • HillSlope: Slope factor or Hill slope.

| SMILES | IC50 [1] | IC50 [2] |
| --- | --- | --- |
| COc1c(=O)n(C2(C)CC2)cc2c(N[C@H](C)c3cccc(C(C)(F)F)c3F)nc(C)nc12 [SZ-022356] | 4.36 nM | 218 nM |
| COc1c(=O)n(C2(C(F)F)CC2)cc2c(N[C@H](C)c3cccc(C#N)c3C)nc(C)nc12 [SZ-022381] | 12.3 nM | 741 nM |
| CCOc1c(=O)n(C2(C(F)(F)F)CC2)cc2c(N[C@H](C)c3cccc(C(C)(F)F)c3F)nc(C)nc12 [SZ-022360] | 9.46 nM | 221 nM |
| COc1c(=O)n(C2(C(F)F)CC2)cc2c(N[C@H](C)c3cccc(C(F)F)c3F)nc(C)nc12 [SZ-022244] | 17.8 nM | 265 nM |
| COc1c(=O)n(C2(C(F)(F)F)CC2)cc2c(N[C@H](C)c3cccc(C(C)(F)F)c3F)nc(C)nc12 [SZ-022358] | 4.79 nM | 222 nM |
| COc1c(=O)n(C2(C(F)F)CC2)cc2c(N[C@H](C)c3cccc(C(F)(F)F)c3F)nc(C)nc12 [SZ-022349] | 7.23 nM | 193 nM |
| CSc1c(=O)n(C2(C(F)F)CC2)cc2c(N[C@H](C)c3cccc(C(F)F)c3F)nc(C)nc12 [SZ-022306] | 12.5 nM | 213 nM |
| COc1c(=O)n(C2(C(F)F)CC2)cc2c(N[C@H](C)c3cccc(C(F)F)c3C)nc(C)nc12 [SZ-022302] | 3.79 nM | 104 nM |
| CCOc1c(=O)n(C2(C(F)(F)F)CC2)cc2c(N[C@H](C)c3cccc(C(F)F)c3F)nc(C)nc12 [SZ-022362] | 12.4 nM | 77 nM |
| Cc1nc(N[C@H](C)c2cccc(C(F)F)c2F)c2cn(C3(C(F)F)CC3)c(=O)c(OCC(F)F)c2n1 [SZ-022368] | 23.5 nM | 249 nM |
| COc1c(=O)n(C2(C(F)F)CC2)cc2c(N[C@H](C)c3cccc(C(C)(F)F)c3F)nc(C)nc12 [SZ-022303] | 9.77 nM | 128 nM |
| CCOc1c(=O)n(C2(C(F)(F)F)CC2)cc2c(N[C@H](C)c3cccc(C(F)(F)F)c3C)nc(C)nc12 [SZ-022340] | 15.2 nM | 367 nM |
| Cc1nc(N[C@H](C)c2cccc(C(F)F)c2F)c2cn(C3(C(F)F)CC3)c(=O)c(O[C@@H]3CCOC3)c2n1 [SZ-022353] | 17.5 nM | 377 nM |
| CCOc1c(=O)n(C2(C(F)F)CC2)cc2c(N[C@H](C)c3cccc(C(F)F)c3C)nc(C)nc12 [SZ-022337] | 4.14 nM | 174 nM |
| COc1c(=O)n(C2(C(F)(F)F)CC2)cc2c(N[C@H](C)c3cccc(C(F)F)c3F)nc(C)nc12 [SZ-022325] | 15.9 nM | 216 nM |
| Cc1nc(N[C@H](C)c2cccc(C(F)F)c2F)c2cn(C3(C(F)F)CC3)c(=O)c(OC3CC3)c2n1 [SZ-022299] | 22.4 nM | 751 nM |
| Cc1nc(N[C@H](C)c2cccc(C(F)F)c2F)c2cn(C3(C(F)F)CC3)c(=O)c(S(C)(=O)=O)c2n1 [SZ-022307] | 25.9 nM | 253 nM |
| [2H]C([2H])([2H])Oc1c(=O)n(C2(C(F)F)CC2)cc2c(N[C@H](C)c3cccc(C(C)(F)F)c3F)nc(C)nc12 [SZ-022355] | 2.47 nM | 112 nM |
| COc1c(=O)n(C2(C(F)(F)F)CC2)cc2c(N[C@H](C)c3cccc(C#N)c3C)nc(C)nc12 [SZ-022383] | 18.4 nM | 985 nM |
| Cc1nc(N[C@H](C)c2cccc(C(F)F)c2F)c2cn(C3(C(F)F)CC3)c(=O)c(OCC(F)(F)F)c2n1 [SZ-022312] | 17.9 nM | 601 nM |
| CCOc1c(=O)n(C2(C)CC2)cc2c(N[C@H](C)c3cccc(C(F)(F)F)c3C)nc(C)nc12 [SZ-022341] | 7.76 nM | 161 nM |
| COc1c(=O)n(C2(C)CC2)cc2c(N[C@H](C)c3cccc(C(F)F)c3F)nc(C)nc12 [SZ-022300] | 12.1 nM | 412 nM |
| Cc1nc(N[C@H](C)c2cccc(C(F)F)c2F)c2cn(C3(C(F)F)CC3)c(=O)c(OCC3CC3)c2n1 [SZ-022314] | 17.3 nM | 563 nM |
